Measurements published in US5084455A, “Novel indole carboxamides” (Roussel Uclaf, priority 1985, dated 1992).
Where two headings read alike, the source gives them in different places.

Columns and labels:
arterial blood pressure = assay: Hypotensive activity on anaesthetized normotensive rats; type: in vivo, Sprague-Dawley male rats; details: 10 mg/kg, jugular vein injection
Method: Sprague-Dawley male rats (CR) were anaesthetized intraperitoneally with pentabarbital sodium (60 mg/kg) and a jugular vein was catheterized for the injection of the product, and a cartoid artery was catheterized for recording the arterial blood pressure. The test product was dissolved in 10% ethanol and then injected in a volume of 1 ml/kg.

[1] = target: T1, beta1-adrenergic receptors (Rattus norvegicus, UniProt P18090); assay: Affinity for beta1-adrenergic receptors ([3H]dihydroalprenolol binding, brain cortex); details: relative to propanolol, [3H]dihydroalprenolol 10^-9 M
T1 construct: 10 cortexes removed from the brains of male rats weighing 150 g on average were homogenized; from tissue; host or cells: rat brain cortex, crude membrane fraction
T1 sequence (P18090 whole entry): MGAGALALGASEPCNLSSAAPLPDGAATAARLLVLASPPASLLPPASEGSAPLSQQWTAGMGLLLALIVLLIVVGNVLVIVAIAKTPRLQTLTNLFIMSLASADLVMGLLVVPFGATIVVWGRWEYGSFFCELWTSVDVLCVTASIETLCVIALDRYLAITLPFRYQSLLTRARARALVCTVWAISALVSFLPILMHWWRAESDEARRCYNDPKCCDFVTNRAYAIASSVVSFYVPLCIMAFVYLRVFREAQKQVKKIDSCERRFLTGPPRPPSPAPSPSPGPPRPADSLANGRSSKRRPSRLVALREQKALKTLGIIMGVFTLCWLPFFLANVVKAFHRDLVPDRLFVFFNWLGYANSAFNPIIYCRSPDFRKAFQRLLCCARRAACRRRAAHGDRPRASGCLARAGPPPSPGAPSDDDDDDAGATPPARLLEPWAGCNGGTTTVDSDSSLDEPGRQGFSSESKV
Method: (§1) The technique is modelled on that of Mohler et al [Science., Vol. 198, p. 849-851 (1977)]. 10 cortexes removed from the brains of male rats weighing 150 g on average were homogenized in 90 ml of 0.32M sucrose and after centrifugation of the homogenized mixture at 1,000 g for 20 minutes at 0° C., the supernatant was centrifuged at 30,000 g for 15 minutes at 0° to +4° C. The pellet was suspended in 120 ml of 50 mM Tris-HCl buffer pH 7.7, and centrifuged at 30,000 g for 15 minutes at 0° to +4° C. The new pellet was suspended in 480 ml of 50 mM Krebs Tris-HCl buffer pH 7.7. 2 ml of the suspension were then incubated for 10 minutes at 37° C. in the presence of [^3 H] dihydroalprenolol at a concentration of 10^-9 M, i) alone, ii) with increasing concentrations of the test product or iii) to determine the non-specific binding, with non-radioactive propanolol at a concentration of 10^-5 M. The incubated suspensions were filtered on Whatman GF/C, and the filters were washed three times with 5 ml of Krebs Tris-HCl buffer pH 7.7 at 0° C.
The radioactivity of the filters was measured by liquid scintillation. The affinity of the test product for beta1 -adrenergic receptors is given relative to propanolol as the reference product.
(§2) CD=concentration of propanolol inhibiting 50% of the specific binding of [^3 H]dihydroalprenolol.
CX=concentration of the test product inhibiting 50% of the specific binding of […].
The relative affinity is given by the relation [formula]

[2] = tested on: disturbances of the cardiac rhythm; assay: Anti-arrhythmic action in the rat (aconitine perfusion); type: in vivo, male rats
Method: Male rats weighing 300-350 g were anesthetized intra-peritoneally with 1.20 g/kg of urethane, then tracheotomized and submitted to artificial respiration (40-50 breaths of 3 ml/minute). Needles were implanted subcutaneously so as to record the electro-cardiogram of the rats on the DII derivation signal. The products under test were administered intravenously or orally.
Five minutes after the administration of the product intravenously or 1 hour after administration orally, the jugular vein of the rats was perfused with 10 μg/minute from 0.2 ml of a solution of aconitine, and the time of appearance of disturbances of the cardiac rhythm was noted, (10 μg of aconitine corresponding to a perfusion of 0.2 ml of solution). The results are expressed as a percentage of the extension of the time of appearance of the disturbances of the cardiac rhythm as compared with controls, and as a function of the dose of the product under test.

mice = assay: Study of the acute toxicity; type: in vivo; details: oral
Method: The lethal doses LD50 of the different compounds tested were evaluated after administration orally to mice. The maximum dose not causing any mortality in 8 days was called the LD0 and the following results were obtained.

Rat caudal arteries = assay: Test of calcium-antagonistic activity in vitro (K+ depolarized caudal arteries); type: cell-based; details: 100 mM K+, 37° C., read-out: IC50, inhibition of the contraction due to K+ ions
Method: Calcium chloride was added in a volume of 250 μl to obtain a series of increasing concentrations of Ca^2+ ions ranging from 0.1 to 3.0 mM. The contractions of the arteries were recorded and a control series were thus established. The operation was repeated with the series of CA^2+ ions every 15 minutes and the preparation was washed four times after each series. When a stable response was obtained, the operation with the series of CA^2+ ions was performed in the presence of different concentrations of the test product, until a stable response was obtained.
The contractions of the arteries depend on the entry of Ca^2+ ions into the cells of the smooth muscles, and were caused by the depolarization of the smooth muscle by the K^+ ions and by the action of the noradrenaline released at presynaptic level. By starting the operation again with arteries denervated by the action of 6-OH-dopamine, the specific action due to noradrenaline was eliminated.

[3] = target: T2, beta2-adrenergic receptors (Rattus norvegicus, UniProt P10608); assay: Affinity for beta2-adrenergic receptors ([3H]dihydroalprenolol binding, cerebella); details: relative to propanolol, [3H]dihydroalprenolol 10^-9 M
T2 construct: The cerebella removed from the brains of male rats weighing 150 g on average were homogenized; from tissue; host or cells: rat cerebellum, crude membrane fraction
T2 sequence (P10608 whole entry): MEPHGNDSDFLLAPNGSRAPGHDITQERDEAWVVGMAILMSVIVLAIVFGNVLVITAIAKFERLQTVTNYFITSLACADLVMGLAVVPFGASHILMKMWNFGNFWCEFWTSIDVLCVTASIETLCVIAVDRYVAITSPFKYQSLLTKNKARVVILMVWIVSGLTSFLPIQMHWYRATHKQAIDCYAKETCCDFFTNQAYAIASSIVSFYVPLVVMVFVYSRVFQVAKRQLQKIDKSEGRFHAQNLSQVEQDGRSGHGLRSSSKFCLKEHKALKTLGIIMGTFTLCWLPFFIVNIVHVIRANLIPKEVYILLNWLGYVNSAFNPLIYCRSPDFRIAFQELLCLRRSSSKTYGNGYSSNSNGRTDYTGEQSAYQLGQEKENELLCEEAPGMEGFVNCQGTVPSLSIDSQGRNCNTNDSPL
Method: as §1, with “The technique was modelled on” for “The technique is modelled on”, “et al [Science, Vol. 198,” for “et al [Science., Vol. 198,”, “849-851 (1977)]. The cerebella removed from” for “849-851 (1977)]. 10 cortexes removed from”, “ml of suspension were” for “ml of the suspension were”, “of [^3 H]dihydroalprenolol at a” for “of [^3 H] dihydroalprenolol at a”, “binding, with non-radio active propranolol at a” for “binding, with non-radioactive propanolol at a”
The radioactivity of the filters was measured by liquid scintillation. The affinity of the test product for beta2 -adrenergic receptors was given relative to propanolol as the reference product.
as §2
CX=concentration of the test product inhibiting 50% of the specific binding of [^3 H]dihydroalprenolol.
The relative affinity is given by the relation ARL=100 CD/CX

[4] = iv, read-out: Percentage extension of the time of appearance of disturbances of the cardiac rhythm
[5] = read-out: Percentage of prolongation in the time

Structure (SMILES) | variation of the arterial blood pressure, 5 mins after administration (arterial blood pressure; 5 min) [percentage] | variation of the arterial blood pressure, 30 min. after administration (arterial blood pressure; 30 min) [percentage] | ARL (relative affinity for beta1-adrenergic receptors) [1] [%] | change in vivo at 1 mg/kg [2, 4] [%] | change in vivo at 2.5 mg/kg [2, 4] [%] | change in vivo at 5 mg/kg [2, 4] [%] | LD0 (maximum dose not causing any mortality in 8 days) (mice) [mg/kg] | IC50 (Rat caudal arteries) [µM] | ARL (relative affinity for beta2-adrenergic receptors, 100 CD/CX) [3] [%] | change in vivo at 2.5 mg/kg [2, 5] [%] | change in vivo at 5 mg/kg [2, 5] [%] | change in vivo at 10 mg/kg [2, 5] [%]
CC(C)(C)NCC(O)COc1ccccc1C(=O)Nc1cccc2[nH]ccc12 (centres unmarked) [Example 17, 2-[3-[(1,1-dimethylethyl)amino]-2-hydroxypropoxy]-N-(1H-indol-4-yl) benzamide benzoate] | -55 | -13 | – | – | – | – | – | – | – | – | – | –
CCC(C)(C)NCC(O)COc1ccccc1C(=O)Nc1cccc2[nH]ccc12 (centres unmarked) [Example 28, 2-[3-[(1,1-dimethylpropyl)amino]-2-hydroxypropoxy]-N-(1H-indol-4-yl) benzamide] | – | – | 28 | 14 | 54 | 95 | > 400 | 2.5 | 15 | – | – | –
Cn1ccc2c(NC(=O)c3ccccc3OCC(O)CNC(C)(C)C)cccc21 (centres unmarked) [Example 34, 2-[3-[1,1-Dimethylethylamino]-2-hydroxypropoxy]-N-(1-methyl-1H-indol-4-yl) benzamide] | – | – | 44 | – | – | – | 80 | 8.8 | 81 | 12 | 43 | 125
CCC(C)(C)NCC(O)COc1ccccc1C(=O)Nc1cccc2[nH]ccc12.O=C(O)c1ccccc1 (centres unmarked) [Example 48, 2-[3-[(1,1-Dimethylpropyl)amino]-2-hydroxypropoxy]-N-(1H-indol-4-yl)benzamide benzoate] | – | – | 20 | – | – | – | – | – | 27 | 53 | 79 | –
